Measured values from PubChem BioAssay (NCI).
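The compound was tested at five concentrations on cells cultured in 96-well plates, with a 48-hour exposure period. TGI: concentration producing complete growth inhibition.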

How the values were obtained:
Assay in all cases: NCI-60 cell line screen, 48 h
OVCAR-3 ovarian = tested on: OVCAR-3 ovarian
SK-MEL-28 melanoma = tested on: SK-MEL-28 melanoma
SK-MEL-5 melanoma = tested on: SK-MEL-5 melanoma
DMS 273 small cell lung = tested on: DMS 273 small cell lung
SNB-78 CNS = tested on: SNB-78 CNS
HCT-15 colon = tested on: HCT-15 colon
EKVX NSCLC = tested on: EKVX NSCLC
DMS 114 small cell lung = tested on: DMS 114 small cell lung
RXF-631 renal = tested on: RXF-631 renal
SNB-19 CNS = tested on: SNB-19 CNS
SN12C renal = tested on: SN12C renal
NCI-H460 lung = tested on: NCI-H460 lung
IGROV1 ovarian = tested on: IGROV1 ovarian
MOLT-4 leukemia = tested on: MOLT-4 leukemia
SK-MEL-2 melanoma = tested on: SK-MEL-2 melanoma
KM20L2 colon = tested on: KM20L2 colon
UACC-257 melanoma = tested on: UACC-257 melanoma
UACC-62 melanoma = tested on: UACC-62 melanoma
ACHN renal = tested on: ACHN renal
SK-OV-3 ovarian = tested on: SK-OV-3 ovarian
A549 NSCLC = tested on: A549 NSCLC
MALME-3M melanoma = tested on: MALME-3M melanoma
XF 498 CNS = tested on: XF 498 CNS
NCI-H522 lung = tested on: NCI-H522 lung
M19-MEL melanoma = tested on: M19-MEL melanoma
SF-268 CNS = tested on: SF-268 CNS
SW-620 colon = tested on: SW-620 colon
CAKI-1 renal = tested on: CAKI-1 renal
RPMI-8226 leukemia = tested on: RPMI-8226 leukemia
SNB-75 CNS = tested on: SNB-75 CNS
786-0 renal = tested on: 786-0 renal
HCC-2998 colon = tested on: HCC-2998 colon
LXFL 529 NSCLC = tested on: LXFL 529 NSCLC
OVCAR-8 ovarian = tested on: OVCAR-8 ovarian
HOP-62 NSCLC = tested on: HOP-62 NSCLC
SF-539 CNS = tested on: SF-539 CNS
HCT-116 colon = tested on: HCT-116 colon
DLD-1 colon = tested on: DLD-1 colon
NCI-H23 lung = tested on: NCI-H23 lung
HT29 colon = tested on: HT29 colon
SF-295 CNS = tested on: SF-295 CNS
OVCAR-4 ovarian = tested on: OVCAR-4 ovarian
KM12 colon = tested on: KM12 colon
COLO 205 colon = tested on: COLO 205 colon
UO-31 renal = tested on: UO-31 renal
RXF 393 renal = tested on: RXF 393 renal
CCRF-CEM leukemia = tested on: CCRF-CEM leukemia
HOP-92 NSCLC = tested on: HOP-92 NSCLC
M14 melanoma = tested on: M14 melanoma
K-562 leukemia = tested on: K-562 leukemia
U251 CNS = tested on: U251 CNS
TK-10 renal = tested on: TK-10 renal
HL-60(TB) leukemia = tested on: HL-60(TB) leukemia
HOP-18 NSCLC = tested on: HOP-18 NSCLC
A498 renal = tested on: A498 renal
OVCAR-5 ovarian = tested on: OVCAR-5 ovarian
LOX IMVI melanoma = tested on: LOX IMVI melanoma

CC1=C(C(=O)CC(=O)C(=O)Nc2ccc(Cl)cc2C)Sc2ccccc2N1
TGI (OVCAR-3 ovarian): > 100 µM | TGI (SK-MEL-28 melanoma): > 100 µM | TGI (SK-MEL-5 melanoma): > 100 µM | TGI (DMS 273 small cell lung): > 100 µM | TGI (SNB-78 CNS): > 100 µM | TGI (HCT-15 colon): > 100 µM | TGI (EKVX NSCLC): > 100 µM | TGI (DMS 114 small cell lung): > 100 µM | TGI (RXF-631 renal): > 100 µM | TGI (SNB-19 CNS): > 100 µM | TGI (SN12C renal): > 100 µM | TGI (NCI-H460 lung): > 100 µM | TGI (IGROV1 ovarian): > 100 µM | TGI (MOLT-4 leukemia): > 77.1 µM | TGI (SK-MEL-2 melanoma): > 100 µM | TGI (KM20L2 colon): > 100 µM | TGI (UACC-257 melanoma): > 100 µM | TGI (UACC-62 melanoma): > 100 µM | TGI (ACHN renal): > 100 µM | TGI (SK-OV-3 ovarian): > 100 µM | TGI (A549 NSCLC): > 100 µM | TGI (MALME-3M melanoma): > 100 µM | TGI (XF 498 CNS): > 100 µM | TGI (NCI-H522 lung): > 100 µM | TGI (M19-MEL melanoma): > 100 µM | TGI (SF-268 CNS): > 100 µM | TGI (SW-620 colon): > 100 µM | TGI (CAKI-1 renal): > 100 µM | TGI (RPMI-8226 leukemia): > 100 µM | TGI (SNB-75 CNS): > 100 µM | TGI (786-0 renal): > 100 µM | TGI (HCC-2998 colon): > 100 µM | TGI (LXFL 529 NSCLC): > 100 µM | TGI (OVCAR-8 ovarian): > 100 µM | TGI (HOP-62 NSCLC): > 100 µM | TGI (SF-539 CNS): > 100 µM | TGI (HCT-116 colon): > 100 µM | TGI (DLD-1 colon): > 100 µM | TGI (NCI-H23 lung): > 100 µM | TGI (HT29 colon): > 100 µM | TGI (SF-295 CNS): > 100 µM | TGI (OVCAR-4 ovarian): > 100 µM | TGI (KM12 colon): > 100 µM | TGI (COLO 205 colon): > 100 µM | TGI (UO-31 renal): > 100 µM | TGI (RXF 393 renal): > 100 µM | TGI (CCRF-CEM leukemia): > 100 µM | TGI (HOP-92 NSCLC): 74.7 µM | TGI (M14 melanoma): > 100 µM | TGI (K-562 leukemia): > 100 µM | TGI (U251 CNS): > 100 µM | TGI (TK-10 renal): > 100 µM | TGI (HL-60(TB) leukemia): > 100 µM | TGI (HOP-18 NSCLC): > 100 µM | TGI (A498 renal): > 100 µM | TGI (OVCAR-5 ovarian): > 100 µM | TGI (LOX IMVI melanoma): > 100 µM
